{
  "source": "patent US12004493B2",
  "about": "“Late-onset Alzheimer's disease animal model and uses thereof” (The Board of Regents of the University of Oklahoma, priority 2018, dated 2024)",
  "origin": "cited, not measured here",
  "system": "early-phase AD patients",
  "conditions": "DAO inhibitor",
  "data": [
    {"smiles": "O=C([O-])c1ccccc1.[Na+]", "note": "[Sodium benzoate]", "values": [
      {"measurement": "cognitive and overall functions", "value": "improved cognitive and overall functions"}
    ]}
  ]
}
